IC50 data for 17 molecules are collected here from patent publication US10508109B2 (priority 2015, dated 2019).

One assay concerns the target SUV39H2 (Homo sapiens (Human), UniProt Q9H5I1). The conditions noted are these: read-out: IC50 (μM) Suv 39H2 assay.
For another assay, the system named is A549. Put plainly: Cell-based assay, anti-proliferative activity (Cell Counting Kit-8, 72 hours). The conditions noted are these: read-out: IC50 (μM) A549. The gist of the method:
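IC50 values come from growth read-outs taken after the cells' exposure to each candidate inhibitor. Cells had been plated in 96-well microtiter plates beforehand.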

The subject of the next assay is CCD-18Co. Described as above. The conditions noted are these: read-out: IC50 (μM) CCD-18Co. The method in brief: (§1)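 Cells were seeded in 96-well plates and exposed to the inhibitors for 72 hours, after which growth was measured with Cell Counting Kit-8. IC50 was derived from a serial dilution series of 0, 1.5625, 3.125, 6.25, 12.5, 25, 50 and 100 micro-M.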
For another assay, the system named is HCT-116. Described as above. The conditions noted are these: read-out: IC50 (μM) HCT-116. The gist of the method:
as §1

The subject of another assay is PC14. Described as above. The conditions noted are these: read-out: IC50 (μM) PC14. The gist of the method:
as §1

The next assay concerns HFL1. Described as above. The conditions noted are these: read-out: IC50 (μM) HFL1. The method in brief: as §1
Setting [1] is: Homo sapiens, A549 cells, Cell Counting Kit-8, 72 hours.
Setting [2] is: Homo sapiens, CCD-18Co cells, Cell Counting Kit-8, 72 hours.
Setting [3] is: Homo sapiens, HCT-116 cells, Cell Counting Kit-8, 72 hours.
Where [4] appears, read: Homo sapiens, PC-14, PC14 cells, Cell Counting Kit-8, 72 hours.
[5] abbreviates: Homo sapiens, HFL1 cells, Cell Counting Kit-8, 72 hours.
Where [6] appears, read: Homo sapiens, A549 cells, 72 hours, Cell Counting Kit-8.
The mark [7] stands for this setting: Homo sapiens, CCD-18Co cells, 72 hours, Cell Counting Kit-8.
The mark [8] stands for this setting: Homo sapiens, HCT-116 cells, 72 hours, Cell Counting Kit-8.
The mark [9] stands for this setting: Homo sapiens, PC-14, PC14 cells, 72 hours, Cell Counting Kit-8.
Where [10] appears, read: Homo sapiens, HFL1 cells, 72 hours, Cell Counting Kit-8.

Structures can show the parent of a compound that is named as a salt. Where two headings read alike, the source gives them in different places.

SUV39H2, sequence (Q9H5I1 whole entry): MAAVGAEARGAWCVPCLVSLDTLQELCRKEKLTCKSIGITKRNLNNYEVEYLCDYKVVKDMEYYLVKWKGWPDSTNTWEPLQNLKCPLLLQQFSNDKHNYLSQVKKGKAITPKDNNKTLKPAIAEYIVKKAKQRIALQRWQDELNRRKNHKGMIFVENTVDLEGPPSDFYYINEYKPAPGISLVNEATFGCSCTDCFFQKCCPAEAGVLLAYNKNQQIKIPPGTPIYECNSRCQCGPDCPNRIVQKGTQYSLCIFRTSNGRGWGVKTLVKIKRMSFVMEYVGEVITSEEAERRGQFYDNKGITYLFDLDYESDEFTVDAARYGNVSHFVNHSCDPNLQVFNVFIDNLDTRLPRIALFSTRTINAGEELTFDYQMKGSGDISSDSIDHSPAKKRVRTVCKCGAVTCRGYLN

Take “4-(2-(5-chloro-2,4-dimethoxyphenyl)imidazo[1,2-a]pyridin-7-yl)-N-(pyrrolidin-2-ylmethyl)benzamide [Example 249]”: the IC50 on SUV39H2 (enzyme assay) was 0.035 µM; in the assay with A549 (A549 cells, 72 hours, Cell Counting Kit-8), 5.4 µM; in the assay with CCD-18Co (CCD-18Co cells, 72 hours, Cell Counting Kit-8) it was 5.2 µM; with HCT-116 (HCT-116 cells, 72 hours, Cell Counting Kit-8), 3.7 µM; in the assay with PC14 (PC14 cells, 72 hours, Cell Counting Kit-8) it was 4.8 µM; with HFL1 (HFL1 cells, 72 hours, Cell Counting Kit-8), 5.4 µM.

Regarding `COc1cc(OC)c(-c2cn3ccc(N)cc3n2)cc1Cl` [Example 151, 2-(5-chloro-2,4-dimethoxyphenyl)imidazo[1,2-a]pyridin-7-amine], the IC50 on SUV39H2 (enzyme assay) is 0.00827 µM; in the assay on A549 (setting [1]) it was 5.1 µM; in the assay with CCD-18Co (setting [2]) it was 2.4 µM; in the assay with HCT-116 (setting [3]) it was 2.3 µM; with PC14 (setting [4]), 2.9 µM; in the assay with HFL1 (setting [5]), 1.9 µM.

As for `CCOP(=O)(CCN1CCN(c2ccn3cc(-c4cc(Cl)c(OC)cc4OC)nc3c2)CC1)OCC` [Example 202, diethyl (2-(4-(2-(5-chloro-2,4-dimethoxyphenyl)imidazo[1,2-a]pyridin-7-yl)piperazin-1-yl)ethyl)phosphonate], the IC50 at SUV39H2 (enzyme assay) is 0.0064 µM; in the assay on A549 (setting [1]), 10 µM; in the assay with CCD-18Co (setting [2]), 5.6 µM; in the assay with HCT-116 (setting [3]), 10 µM; in the assay on PC14 (setting [4]), 8 µM; in the assay on HFL1 (setting [5]), 7.2 µM.

For the molecule `COc1cc(OC)c(-c2cn3ccc(C4=CCN(CCO)CC4)cc3n2)cc1Cl` [Example 134, 2-(4-(2-(5-chloro-2,4-dimethoxyphenyl)imidazo[1,2-a]pyridin-7-yl)-5,6-dihydropyridin-1(2H)-yl)ethanol], the IC50 turned out to be 0.0576 µM on SUV39H2 (enzyme assay); 5 µM in the assay with A549 (setting [1]); 5.4 µM with CCD-18Co (setting [2]); 6.8 µM with HCT-116 (setting [3]); 5.3 µM in the assay with PC14 (setting [4]); 3.8 µM in the assay on HFL1 (setting [5]).

For `COc1cc(OC)c(-c2cn3ccc(N4CCCN(S(=O)(=O)C5CC5)CC4)cc3n2)cc1Cl` [Example 187, 2-(5-chloro-2,4-dimethoxyphenyl)-7-[4-(cyclopropylsulfonyl)-1,4-diazepan-1-yl]imidazo[1,2-a]pyridine], the IC50 on SUV39H2 (enzyme assay) came to 0.00574 µM; in the assay on A549 (setting [1]) it was 2.1 µM; in the assay on CCD-18Co (setting [2]), 5 µM; in the assay on HCT-116 (setting [3]) it was 1.9 µM; in the assay with PC14 (setting [4]), 1.4 µM; in the assay on HFL1 (setting [5]) it was 2.1 µM.

For `CCS(=O)(=O)N1CCN(c2ccn3cc(-c4cc(Cl)c(OC)cc4OC)nc3c2)CC1` [Example 172, 2-(5-chloro-2,4-dimethoxyphenyl)-7-[4-(ethylsulfonyl)piperazin-1-yl]imidazo[1,2-a]pyridine], the IC50 at SUV39H2 (enzyme assay) was 0.0125 µM; with A549 (setting [1]) it was 1.9 µM; with CCD-18Co (setting [2]), 1.8 µM; in the assay on HCT-116 (setting [3]), 1.2 µM; in the assay on PC14 (setting [4]), 1.6 µM; with HFL1 (setting [5]) it was 1.8 µM.

For `COc1cc(OC)c(-c2cn3ccc(N4CCN(C(=O)OC(C)(C)C)C(C)C4)cc3n2)cc1Cl` (stereo not drawn) [Example 275, tert-butyl 4-(2-(5-chloro-2,4-dimethoxyphenyl)imidazo[1,2-a]pyridin-7-yl)-2-methylpiperazine-1-carboxylate], the half-inhibitory concentration (IC50) at SUV39H2 (enzyme assay) came to 0.00333 µM; in the assay with A549 (setting [6]), 1.3 µM; in the assay on CCD-18Co (setting [7]), 1.4 µM; with HCT-116 (setting [8]), 1.4 µM; in the assay with PC14 (setting [9]), 0.87 µM; in the assay on HFL1 (setting [10]), 1.1 µM.

In the case of `COc1cc(OC)c(-c2cn3ccc(-c4ccc(C(=O)NCCCN)cc4)cc3n2)cc1Cl` [Example 265, N-(3-aminopropyl)-4-(2-(5-chloro-2,4-dimethoxyphenyl)imidazo-[1,2-a]pyridin-7-yl)benzamide], the IC50 at SUV39H2 (enzyme assay) is 0.036 µM; in the assay on A549 (setting [6]) it was 5.5 µM; in the assay with CCD-18Co (setting [7]) it was 7.3 µM; in the assay on HCT-116 (setting [8]), 5.2 µM; in the assay with PC14 (setting [9]), 4.2 µM; in the assay on HFL1 (setting [10]), 4.7 µM.

For the molecule `COc1cc(OCCCN(C)C)c(-c2cn3ccc(N4CCCC4)cc3n2)cc1Cl` [Example 80, 3-{4-chloro-5-methoxy-2-[7-(pyrrolidin-1-yl)imidazo[1,2-a]pyridin-2-yl]-phenoxy}-N,N-dimethylpropan-1-amine], the IC50 on SUV39H2 (enzyme assay) was found to be 0.00531 µM; in the assay on A549 (setting [1]), 1.6 µM; in the assay on CCD-18Co (setting [2]), 1.8 µM; with HCT-116 (setting [3]), 1.1 µM; with PC14 (setting [4]), 1.7 µM; in the assay on HFL1 (setting [5]), 0.85 µM.

On to `COc1cc(Cl)c(Cl)cc1-c1cn2ccc(N3CCCC3)cc2n1` [Example 233, 2-(4,5-dichloro-2-methoxyphenyl)-7-(pyrrolidin-1-yl)imidazo[1,2-a]-pyridine], for which the IC50 was 0.085 µM at SUV39H2 (enzyme assay); 2.6 µM in the assay on A549 (setting [6]); 2.8 µM in the assay with CCD-18Co (setting [7]); 2.7 µM in the assay with HCT-116 (setting [8]); 1.8 µM with PC14 (setting [9]); 2.7 µM in the assay with HFL1 (setting [10]).

With `COc1cc(OC)c(-c2cn3ccc(N4CCNCC4)nc3n2)cc1Cl` [Example 153, 2-(5-chloro-2,4-dimethoxyphenyl)-7-(piperazin-1-yl)imidazo[1,2-a]-pyrimidine], the IC50 was 0.0526 µM at SUV39H2 (enzyme assay); 10 µM with A549 (setting [1]); 11 µM in the assay on CCD-18Co (setting [2]); 8.6 µM in the assay on HCT-116 (setting [3]); 4.1 µM in the assay on PC14 (setting [4]); 5.3 µM in the assay with HFL1 (setting [5]).

Take `CCS(=O)(=O)N1CCN(c2ccn3cc(-c4cc(Cl)c(OC)cc4OC)nc3n2)CC1` [Example 190, 2-(5-chloro-2,4-dimethoxyphenyl)-7-[4-(ethylsulfonyl)piperazin-1-yl]imidazo[1,2-a]pyrimidine]: the IC50 at SUV39H2 (enzyme assay) amounted to 0.0306 µM; in the assay with A549 (setting [1]) it was 1.8 µM; with CCD-18Co (setting [2]), 4.5 µM; in the assay on HCT-116 (setting [3]), 2.3 µM; with PC14 (setting [4]) it was 1 µM; with HFL1 (setting [5]) it was 2.7 µM.

`COc1cc(OC)c(-c2cn3ccc(N4CCN(CCN5CCCCC5)CC4)cc3n2)cc1Cl` [Example 135, 2-(5-chloro-2,4-dimethoxyphenyl)-7-(4-(2-(piperidin-1-yl)ethyl)piperazin-1-yl)imidazo[1,2-a]pyridine]: the concentration for half-maximal inhibition (IC50) stood at 0.0128 µM at SUV39H2 (enzyme assay); 3 µM in the assay with A549 (setting [1]); 2.8 µM in the assay on CCD-18Co (setting [2]); 2.4 µM in the assay on HCT-116 (setting [3]); 2.6 µM in the assay with PC14 (setting [4]); 4.8 µM in the assay on HFL1 (setting [5]).

As for `COc1cc(OC)c(-c2cn3ccc(N4CCC(CCNC(=O)OC(C)(C)C)CC4)nc3n2)cc1Cl` [Example 61, tert-butyl (2-{1-[2-(5-chloro-2,4-dimethoxyphenyl)imidazo[1,2-a]pyrimidin-7-yl]piperidin-4-yl}-ethyl)carbamate], the IC50 on SUV39H2 (enzyme assay) amounted to 0.00831 µM; with A549 (setting [1]), 4.5 µM; in the assay with CCD-18Co (setting [2]), 4.3 µM; with HCT-116 (setting [3]), 4.1 µM; with PC14 (setting [4]) it was 1.7 µM; in the assay with HFL1 (setting [5]), 3.4 µM.

In the case of `COc1cc(OC)c(-c2cn3ccc(N4CCN(c5ncccc5C#N)CC4)cc3n2)cc1Cl` [Example 283, 2-(4-(2-(5-chloro-2,4-dimethoxyphenyl)imidazo[1,2-a]pyridin-7-yl)-piperazin-1-yl)nicotinonitrile], the IC50 on SUV39H2 (enzyme assay) came out at 0.0141 µM; in the assay with A549 (setting [6]) it was 0.66 µM; in the assay on CCD-18Co (setting [7]) it was 0.45 µM; in the assay with HCT-116 (setting [8]), 0.42 µM; in the assay with PC14 (setting [9]), 0.68 µM; with HFL1 (setting [10]) it was 0.69 µM.

For the molecule `COc1cc(OC)c(-c2cn3ccc(N4CC[C@H](NCc5ccccc5)C4)cc3n2)cc1Cl` [Example 301, (S)—N-benzyl-1-(2-(5-chloro-2,4-dimethoxyphenyl)imidazo[1,2-a]pyridin-7-yl)pyrrolidin-3-amine], the IC50 on SUV39H2 (enzyme assay) turned out to be 0.0107 µM; in the assay with A549 (setting [6]), 1.4 µM; in the assay with CCD-18Co (setting [7]), 1.1 µM; in the assay with HCT-116 (setting [8]), 0.79 µM; in the assay on PC14 (setting [9]), 1.5 µM; with HFL1 (setting [10]), 0.69 µM.

Consider `COc1cc(OC)c(-c2cn3ccc(N4CCC(CCN)CC4)cc3n2)cc1Cl` [Example 72, 2-(1-(2-(5-chloro-2,4-dimethoxyphenyl)imidazo[1,2-a]pyridine-7-yl)piperidin-4-yl)ethanamine dihydrochloride], for which the IC50 on SUV39H2 amounted to 0.00875 µM; in the assay with A549 (Homo sapiens, A549, 72 h), 5.3 µM; with CCD-18Co (Homo sapiens, CCD-18Co, 72 h) it was 7 µM; with HCT-116 (Homo sapiens, HCT-116, 72 h) it was 4.9 µM; with PC14 (Homo sapiens, PC-14, 72 h) it was 2.5 µM; in the assay on HFL1 (Homo sapiens, HFL1, 72 h) it was 3.7 µM.
